Results from patent publication US20200223840A1, “SUBSTITUTED PYRROLIDINE AMIDES III” (Gruenenthal GMBH, priority 2019, published 2020).

Molecular target: T1, human glucocorticoid receptor (Homo sapiens, UniProt P04150)
T1 construct: host or cells: IM9 human lymphoblast cells, cytosol fraction
T1 sequence (P04150 1-777): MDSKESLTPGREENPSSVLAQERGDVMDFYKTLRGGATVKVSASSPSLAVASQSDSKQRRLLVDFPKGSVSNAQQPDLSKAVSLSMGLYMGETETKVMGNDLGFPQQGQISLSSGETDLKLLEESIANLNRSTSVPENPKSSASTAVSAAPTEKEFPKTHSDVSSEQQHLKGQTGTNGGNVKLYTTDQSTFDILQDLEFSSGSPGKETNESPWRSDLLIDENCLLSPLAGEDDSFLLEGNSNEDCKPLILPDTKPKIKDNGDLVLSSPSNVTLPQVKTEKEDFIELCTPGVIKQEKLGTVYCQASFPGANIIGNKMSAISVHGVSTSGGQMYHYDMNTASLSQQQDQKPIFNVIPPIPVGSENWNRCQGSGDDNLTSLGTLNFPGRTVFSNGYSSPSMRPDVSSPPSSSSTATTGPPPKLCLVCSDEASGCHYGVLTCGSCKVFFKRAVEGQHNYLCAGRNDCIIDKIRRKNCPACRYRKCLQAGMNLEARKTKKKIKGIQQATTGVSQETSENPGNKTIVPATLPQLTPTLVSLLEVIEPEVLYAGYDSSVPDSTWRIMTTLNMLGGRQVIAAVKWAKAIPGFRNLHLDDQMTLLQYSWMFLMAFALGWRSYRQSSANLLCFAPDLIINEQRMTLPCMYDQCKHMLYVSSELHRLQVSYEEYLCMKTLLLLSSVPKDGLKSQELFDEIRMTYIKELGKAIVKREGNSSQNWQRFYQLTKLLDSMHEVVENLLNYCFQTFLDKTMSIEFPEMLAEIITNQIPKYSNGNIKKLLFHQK
Assay: Human glucocorticoid receptor (hGR) ligand-binding assay, 3H-dexamethasone, IM9 cytosol
Details: read-out: % inhibition hGR at 1 μM
Experimental: Preferably, the glucocortitcoid receptor extracted from cytosol of IM9 cells is used for competitive radioligand binding assays to calculate percentage inhibition of the binding of radiolabeled ligand 3H-dexamethasone at the human glucocorticoid receptor.
The human lymphoblast cell line IM9 (ATCC, Bethesda, Md.) was cultivated in RPMI 1640 media containing 10% fetal bovine serum, penicillin (100 U/ml), streptomycin (100 μg/ml), and 2 mM L-glutamine at […] and 7% CO2 in a humidified incubator. Cells were centrifuged for 10 minutes at 1500 g and were washed in PBS and repelleted. Cell were then resuspended in homogenization buffer consisting of: 10 mM TES, 10 mM sodium molybdate, 1 mM EDTA, pH 7.4, 20 mM 2-mercaptoethanol, and 10% glycerol. Disruption of the cells was performed by nitrogen cavitation using 2×15 minutes at 600 to 750 psi nitrogen in a N2 cavitator at 0° C. The cell preparation was then centrifuged at 27,000 g for 15 minutes, and the resultant supernatant (=cytosol of IM9 cells) was centrifuged at 103,000 g for 60 minutes at 4° C. The amount of protein in the supernatant fraction was determined using a BCA assay kit and aliquots were snap frozen in a dry ice-acetone bath and stored at −70° C. […] 100 μl of the supernatant) was finally assayed for radioactivity by liquid scintillationspectrometry, and percentage inhibition of 3H-dexamethasone binding was calculated.

inhibition at 1 µM: 28%
Structure (SMILES): Cc1cnc(C(=O)N[C@H]2[C@H](c3ccccc3)N(c3ccc4c(cnn4-c4ccc(=O)n(C)c4)c3)C(=O)C2(C)C)s1 [Example 26, N-[(2S,3R)-4,4-Dimethyl-1-[1-(1-methyl-6-oxo-1H-pyridin-3-yl)-1H-indazol-5-yl]-5-oxo-2-phenyl-pyrrolidin-3-yl]-5-methyl-thiazole-2-carboxylic acid amide]
